Measurements reported in publication PMC5154195, “Ester-Modified Cyclometalated Iridium(III) Complexes as Mitochondria-Targeting Anticancer Agents” (Scientific Reports, 2016).

What was measured:
[1] = system: A549R (cisplatin-resistant A549) cells; experiment: MTT cell viability assay, A549R; format: cell-based, human; details: 44 h + 4 h MTT, read-out: IC50 (50% inhibition of cell viability)
Method: (§1) HeLa, A549, A549R, MCF-7 and HepG2 cells were obtained from Experimental Animal Centre of Sun Yat-Sen University (Guangzhou, China). Cells were cultured in DMEM (Dulbecco’s modified Eagle’s medium, Gibco BRL) or RPMI 1640 (Roswell Park Memorial Institute 1640, Gibco BRL) medium, containing 10% FBS (fetal bovine serum, Gibco BRL), 100 μg/mL streptomycin and 100 U/mL penicillin (Gibco BRL).
(§2) The cytotoxicity of the tested complexes towards different cell lines was determined by MTT assay. Cells were cultured in 96-well plates for 24 h. Cells were incubated with a series of concentrations of complexes for another 44 h. 20 μL MTT solution (5 mg/mL) was added into each well and incubated for another 4 h. Then culture media was removed and 150 μL DMSO was added into each well. The plate was shaken for 10 min. The absorbance at 595 nm was measured by a microplate reader.

[2] = system: A549 (human lung adenocarcinoma epithelial) cells; experiment: MTT cell viability assay, A549; format: cell-based; details: 44 h + 4 h MTT, read-out: IC50 (50% inhibition of cell viability)
Method: as §1, §2

[3] = system: HeLa (human cervical cancer) cells; experiment: MTT cell viability assay, HeLa; format: cell-based; details: 44 h + 4 h MTT, read-out: IC50 (50% inhibition of cell viability)
Method: as §1, §2

[4] = system: porcine liver esterase (PLE); experiment: Hydrolysis by PLE in vitro (ESI-MS); format: in vitro ADME; details: 20 μM, 0.6 units PLE, Tris-HCl 10 mM pH 7.4, 2 h
Method: Ester-modified compounds have been used as prodrugs widely. They can be hydrolysed by a variety of esterases selectively or non-selectively, to release active pharmacophores. Herein, porcine liver esterase (PLE) was used as a model to investigate the hydrolytic process of the ester bonds in Ir(III) complexes. The hydrolysis of ten Ir(III) complexes by PLE were detected by ESI-MS (Supplementary Fig. S14)[28]. Equal amounts of Ir(III) complexes (20 μM, 100 μL) were incubated with PLE (0.6 units) in Tris-HCl solution (10 mM, pH 7.4) for 2 h. […] Other complexes with ester substituents show peaks assigned to intact complexes as well as peaks corresponding to hydrolytic products.
Ir(III) complexes (20 μM) were dissolved in freshly prepared Tris-HCl (10 mM, pH 7.4) buffer. Each sample contained 100 μL Ir(III) solution and 0.6 units PLE. After the samples were incubated at 298 K for 2 h, 400 μL acetone (253 K) was added into each sample to quench the enzymatic hydrolysis. Then the samples were centrifuged at 15000 × g for 10 min. The supernatant was collected and analyzed by ESI-MS.

A549 cells [5] = experiment: Cellular uptake efficacy by ICP-MS; format: cell-based, human; details: 20 μM, 1 h
Method: It has been reported that cellular uptake efficacy of a compound is affected by many factors, such as lipophilicity, polarization and surface area[32]. As iridium is an exogenous element, its cellular uptake level can be quantitatively recorded by ICP-MS (inductively coupled plasma-mass spectrometry)[15]. A549 (human lung adenocarcinoma epithelial) cells were incubated with Ir(III) complexes (20 μM) for 1 h and analysed. Cell penetration capability of these complexes is correlated with the length of ester group and lipophilicity (Fig. 3B).
A549 cells were cultured in 60 mm dishes and incubated for 24 h. The medium was removed and replaced with medium-DMSO (99:1, v/v) containing Ir(III) complexes (20 μM). After 1 h incubation, cells were trypsined and collected in PBS. After counted by hemocytometer, cells were digested with HNO3 (65%, 300 μL) at room temperature for 24 h. The solution was diluted to a final volume of 10 mL with Milli-Q water containing 10 ppb In. The iridium content was measured by ICP-MS using In as the internal reference.

[6] = system: HepG2 (human hepatocellular liver carcinoma) cells; experiment: MTT cell viability assay, HepG2; format: cell-based; details: 44 h + 4 h MTT, read-out: IC50 (50% inhibition of cell viability)
Method: as §1, §2

[7] = system: all the cell lines tested (A549, A549R, HeLa, HepG2, MCF-7); experiment: Cytotoxicity across the cell line panel (MTT); format: cell-based, human
Method: The cytotoxicity was evaluated in A549, A549R (cisplatin-resistant A549), HeLa (human cervical cancer), HepG2 (human hepatocellular liver carcinoma) and MCF-7 (human breast adenocarcinoma) cells. Cisplatin was also tested as a positive control. Generally, the anti-proliferative efficacy of Ir(III) complexes is in the following order: 4a ≈ 4b > 5a ≈ 5b > 3b > 3a > 2b > 2a > 1a ≈ 1b, which corresponds to their lipophilicity and cellular uptake efficacy (Table 1). […] Complexes with longer ester substitutions (4a, 5a, 4b and 5b) show much higher cytotoxicity than the other complexes. […] For complexes 1a and 1b, converting the carboxyl acid groups into ester groups can facilitate cellular uptake and improve their anti-proliferative effects. As carboxyl groups are usually deprotonated at physiological pH, the phenomena may be partially attributed to the alteration of molecular charge from neutral/negative to positive under physiological conditions.
as §2, with “The plate was shaken for 10 min.” left out

[8] = Lipophilicity (log Po/w), shake-flask method with ICP-MS; format: physicochemical; details: n-octanol/PBS
Method: According to the Lipinski’s rule, appropriate hydrophilicity and lipophilicity are of vital importance for drugs. Excessive hydrophilicity decreases penetration ability of a drug to cross phospholipid layer membrane. On the contrary, high lipophilicity means poor water solubility, which hinders biomedical applications. The lipophilicity, as represented by the log Po/w values, was determined by the shake-flask method according to a literature procedure. The log Po/w values of these Ir(III) complexes fall between −0.81 and 2.59 (Fig. 3A).
The lipophilicity (log Po/w) was determined by the flask-shaking method and analyzed by ICP-MS. Equal amounts of PBS and n-octanol were shaken in the oscillator for 24 h. The mixture was separated to obtain oil and water phases. The mixtures were centrifuged at 3000 × g for 5 min. Equal volumes of n-octanol and PBS were added to the supernatant. The mixtures were shaken for another 24 h, and then centrifuged at 3000 × g for 5 min. The oil and water phases were separated carefully and dried under vacuum. The dried sample was dissolved by HNO3 (65%, 300 μL) and diluted to a final volume of 10 mL with Milli-Q water containing 10 ppb In. The Ir(III) concentration (Co or Cw) was measured by ICP-MS using In as the internal reference. The Po/w value corresponds to Co/Cw.

[9] = system: MCF-7 (human breast adenocarcinoma) cells; experiment: MTT cell viability assay, MCF-7; format: cell-based; details: MCF-7, MTT, 44 h + 4 h MTT; read-out: IC50 (50% inhibition of cell viability)
Method: as §1, §2

A549 cells [10] = experiment: Inhibition of autophagy by 3-MA, MTT cell viability; format: cell-based, human; details: A549, 3-MA pre-treatment 1 h, 24 h
Method: Autophagy is a complicated biological process, which can play either pro-survival or pro-death roles in anticancer therapy. 3-methyladenine (3-MA), a specific class III PI3K inhibitor that can block autophagosome formation, was used to investigate the relationship between autophagy and anti-proliferative activities of 4a and 4b[51]. The anti-proliferative effects are diminished by pre-treatment of A549 cells with 3-MA (5 mM) for 1 h (Fig. 8F). Cell viabilities increase by approximately 1.09−fold and 1.13−fold for 4a (2 μM, 24 h) and 4b (2 μM, 24 h), respectively.
Cells were cultured in a 96-well plate and grown to confluence. Cells were pre-treated with or without 3-MA (5 mM) for 1 h, then incubated with the complexes at the indicated concentrations for 24 h. Cell viability was measured by MTT assay.

IC50 [1] [µM]	IC50 [2] [µM]	IC50 [3] [µM]	hydrolysis of ester bonds by PLE (ESI-MS peaks) [4]	cellular uptake level / penetration ability (A549 cells [5])	IC50 [6] [µM]	Lipophilicity (log Po/w) [8]	IC50 [9] [µM]	Structure (SMILES)	cytotoxicity against all the cell lines tested [7]	effect of 3-MA pre-treatment on induced cell death (A549 cells [10])
> 100	> 100	> 100	remain unchanged	lowest penetration ability	> 100	-0.81	> 100	O=C([O-])c1cc[n+]2c(c1)-c1cc(C(=O)O)cc[n+]1[Ir-3]213([c]2ccccc2-c2cccc[n+]21)[c]1ccccc1-c1cccc[n+]13 [Complex 1a, Ir(ppy)2(Hdcbpy)]	inactive	
> 100	> 100	> 100	remain unchanged	lowest penetration ability	> 100	-0.49	> 100	O=C([O-])c1cc[n+]2c(c1)-c1cc(C(=O)O)cc[n+]1[Ir-3]213([c]2cc(F)cc(F)c2-c2cccc[n+]21)[c]1cc(F)cc(F)c1-c1cccc[n+]13 [Complex 1b, Ir(dfppy)2(Hdcbpy)]	inactive	

Structure (SMILES)	IC50 [1] [µM]	IC50 [2] [µM]	IC50 [3] [µM]	hydrolysis of ester bonds by PLE (ESI-MS peaks) [4]	cellular uptake level / penetration ability (A549 cells [5])	IC50 [6] [µM]	Lipophilicity (log Po/w) [8]	IC50 [9] [µM]	cytotoxicity against all the cell lines tested [7]	effect of 3-MA pre-treatment on induced cell death (A549 cells [10])
N.N.[Cl][Pt][Cl] [cisplatin, reference compound]	79.4 ± 6.1	23.7 ± 1	25.1 ± 2.2			15.8 ± 1.2		16.8 ± 1.5		enhance cell death
